Where “and” joins values, the source holds several entries; their conditions need not be identical. Equal entries are not always repeated. Toxic doses and inconclusive results are not listed.
System: L1210 leukemia ip in BDF1 mice, survival T/C
Experiment: NCI In Vivo Anticancer Drug Screen. Data for tumor model L1210 Leukemia (intraperitoneal) in B6D2F1 (BDF1) mice
Conditions: higher = longer survival
Procedure, shortened: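 In this screen, tumor-bearing mice given compound are compared to those given vehicle, and their survival values are reported as a treated-to-control quotient.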

For `O=C(O)CCCc1ccc(N(CCCl)CCCl)cc1`, the T/C (endpoint: mean survival time, dose: 0.5 mg/kg/injection, schedule: Q01DX009 (ip), vehicle: saline with Tween-80) was 101 % of control and 104 % of control, the T/C (endpoint: mean survival time, dose: 1.0 mg/kg/injection, schedule: Q01DX009 (ip), vehicle: saline with Tween-80) was 96 % of control and 106 % of control and the T/C (endpoint: mean survival time, dose: 1.0 mg/kg/injection, schedule: Q04DX002 (ip), vehicle: saline with Tween-80) was 95 % of control and 105 % of control. The T/C (endpoint: mean survival time, dose: 1.0 mg/kg/injection, schedule: Q12HX018 (ip), vehicle: saline with Tween-80) was 107 % of control, the T/C (endpoint: mean survival time, dose: 1.81 mg/kg/injection, schedule: Q01DX Z (ip), vehicle: carboxymethylcellulose (CMC)) was 103 % of control and the T/C (endpoint: mean survival time, dose: 2.0 mg/kg/injection, schedule: Q01DX009 (ip), vehicle: saline with Tween-80) was 103 % of control and 107 % of control. The T/C (endpoint: mean survival time, dose: 2.0 mg/kg/injection, schedule: Q04DX002 (ip), vehicle: saline with Tween-80) was 100 % of control and 105 % of control, the T/C (endpoint: mean survival time, dose: 2.0 mg/kg/injection, schedule: Q08HX027 (ip), vehicle: acetone) was 120 % of control and the T/C (endpoint: mean survival time, dose: 2.0 mg/kg/injection, schedule: Q12HX018 (ip), vehicle: acetone) was 110 % of control and 111 % of control and 121 % of control. The T/C (endpoint: mean survival time, dose: 2.0 mg/kg/injection, schedule: Q12HX018 (ip), vehicle: saline with Tween-80) was 115 % of control, the T/C (endpoint: mean survival time, dose: 2.5 mg/kg/injection, schedule: Q01DX001 (ip), vehicle: carboxymethylcellulose (CMC)) was 112 % of control and the T/C (endpoint: mean survival time, dose: 3.62 mg/kg/injection, schedule: Q01DX Z (ip), vehicle: carboxymethylcellulose (CMC)) was 106 % of control. For the same compound, the T/C (endpoint: mean survival time, dose: 4.0 mg/kg/injection, schedule: Q01DX009 (ip), vehicle: acetone) was 112 % of control and 123 % of control, the T/C (endpoint: mean survival time, dose: 4.0 mg/kg/injection, schedule: Q01DX009 (ip), vehicle: saline with Tween-80) was 100 % of control and 115 % of control and the T/C (endpoint: mean survival time, dose: 4.0 mg/kg/injection, schedule: Q04DX002 (ip), vehicle: saline with Tween-80) was 96 % of control and 102 % of control. The T/C (endpoint: mean survival time, dose: 4.0 mg/kg/injection, schedule: Q12HX018 (ip), vehicle: Klucel (hydroxypropylcellulose) (HPC)) was 115 % of control, the T/C (endpoint: mean survival time, dose: 4.0 mg/kg/injection, schedule: Q12HX018 (ip), vehicle: acetone) was 122 % of control and the T/C (endpoint: mean survival time, dose: 4.0 mg/kg/injection, schedule: Q12HX018 (ip), vehicle: other) was 112 % of control and 121 % of control. For the same compound, the T/C (endpoint: mean survival time, dose: 4.0 mg/kg/injection, schedule: Q12HX018 (ip), vehicle: saline with Tween-80) was 124 % of control, the T/C (endpoint: mean survival time, dose: 5.0 mg/kg/injection, schedule: Q01DX001 (ip), vehicle: carboxymethylcellulose (CMC)) was 103 % of control and the T/C (endpoint: mean survival time, dose: 5.0 mg/kg/injection, schedule: Q08HX027 (ip), vehicle: acetone) was 90 % of control. The T/C (endpoint: mean survival time, dose: 5.8 mg/kg/injection, schedule: Q01DX Z (ip), vehicle: carboxymethylcellulose (CMC)) was 101 % of control and 103 % of control, the T/C (endpoint: mean survival time, dose: 6.0 mg/kg/injection, schedule: Q12HX018 (ip), vehicle: Klucel (hydroxypropylcellulose) (HPC)) was 116 % of control and the T/C (endpoint: mean survival time, dose: 6.0 mg/kg/injection, schedule: Q12HX018 (ip), vehicle: acetone) was 162 % of control. For the same compound, the T/C (endpoint: mean survival time, dose: 6.0 mg/kg/injection, schedule: Q12HX018 (ip), vehicle: other) was 120 % of control, the T/C (endpoint: mean survival time, dose: 6.0 mg/kg/injection, schedule: Q12HX018 (ip), vehicle: saline with Tween-80) was 120 % of control and the T/C (endpoint: mean survival time, dose: 6.25 mg/kg/injection, schedule: Q01DX Z (ip), vehicle: carboxymethylcellulose (CMC)) was 113 % of control. For the same compound, the T/C (endpoint: mean survival time, dose: 7.25 mg/kg/injection, schedule: Q01DX Z (ip), vehicle: carboxymethylcellulose (CMC)) was 98 % of control and 103 % of control and 120 % of control, the T/C (endpoint: mean survival time, dose: 8.0 mg/kg/injection, schedule: Q01DX009 (ip), vehicle: saline with Tween-80) was 115 % of control and 116 % of control and the T/C (endpoint: mean survival time, dose: 8.0 mg/kg/injection, schedule: Q04DX002 (ip), vehicle: saline with Tween-80) was 96 % of control and 98 % of control. For the same compound, the T/C (endpoint: mean survival time, dose: 8.0 mg/kg/injection, schedule: Q12HX018 (ip), vehicle: Klucel (hydroxypropylcellulose) (HPC)) was 114 % of control and 118 % of control, the T/C (endpoint: mean survival time, dose: 8.0 mg/kg/injection, schedule: Q12HX018 (ip), vehicle: acetone) was 100 % of control and the T/C (endpoint: mean survival time, dose: 8.0 mg/kg/injection, schedule: Q12HX018 (ip), vehicle: saline with Tween-80) was 118 % of control. The T/C (endpoint: mean survival time, dose: 9.66 mg/kg/injection, schedule: Q01DX Z (ip), vehicle: carboxymethylcellulose (CMC)) was 100 % of control and 114 % of control, the T/C (endpoint: mean survival time, dose: 10.0 mg/kg/injection, schedule: Q01DX001 (ip), vehicle: carboxymethylcellulose (CMC)) was 109 % of control and the T/C (endpoint: mean survival time, dose: 10.0 mg/kg/injection, schedule: Q12HX018 (ip), vehicle: acetone) was 88 % of control. For the same compound, the T/C (endpoint: mean survival time, dose: 12.0 mg/kg/injection, schedule: Q01DX009 (ip), vehicle: acetone) was 122 % of control, the T/C (endpoint: mean survival time, dose: 12.0 mg/kg/injection, schedule: Q12HX018 (ip), vehicle: Klucel (hydroxypropylcellulose) (HPC)) was 103 % of control and 121 % of control and the T/C (endpoint: mean survival time, dose: 12.0 mg/kg/injection, schedule: Q12HX018 (ip), vehicle: saline with Tween-80) was 109 % of control. The T/C (endpoint: mean survival time, dose: 12.5 mg/kg/injection, schedule: Q01DX Z (ip), vehicle: carboxymethylcellulose (CMC)) was 110 % of control, the T/C (endpoint: mean survival time, dose: 14.5 mg/kg/injection, schedule: Q01DX Z (ip), vehicle: carboxymethylcellulose (CMC)) was 114 % of control and 117 % of control and the T/C (endpoint: mean survival time, dose: 16.0 mg/kg/injection, schedule: Q01DX009 (ip), vehicle: acetone) was 101 % of control and 115 % of control. The T/C (endpoint: mean survival time, dose: 16.0 mg/kg/injection, schedule: Q01DX009 (ip), vehicle: saline with Tween-80) was 121 % of control, the T/C (endpoint: mean survival time, dose: 16.0 mg/kg/injection, schedule: Q04DX002 (ip), vehicle: saline with Tween-80) was 100 % of control and 108 % of control and the T/C (endpoint: mean survival time, dose: 16.0 mg/kg/injection, schedule: Q12HX018 (ip), vehicle: Klucel (hydroxypropylcellulose) (HPC)) was 92 % of control. The T/C (endpoint: mean survival time, dose: 18.0 mg/kg/injection, schedule: Q01DX001 (ip), vehicle: carboxymethylcellulose (CMC)) was 105 % of control, the T/C (endpoint: mean survival time, dose: 20.0 mg/kg/injection, schedule: Q01DX001 (ip), vehicle: carboxymethylcellulose (CMC)) was 115 % of control and the T/C (endpoint: mean survival time, dose: 20.0 mg/kg/injection, schedule: Q01DX009 (ip), vehicle: acetone) was 92 % of control. For the same compound, the T/C (endpoint: mean survival time, dose: 20.0 mg/kg/injection, schedule: Q12HX018 (ip), vehicle: Klucel (hydroxypropylcellulose) (HPC)) was 89 % of control, the T/C (endpoint: mean survival time, dose: 25.0 mg/kg/injection, schedule: Q01DX Z (ip), vehicle: carboxymethylcellulose (CMC)) was 116 % of control and the T/C (endpoint: mean survival time, dose: 27.0 mg/kg/injection, schedule: Q01DX001 (ip), vehicle: carboxymethylcellulose (CMC)) was 109 % of control. For the same compound, the T/C (endpoint: mean survival time, dose: 27.0 mg/kg/injection, schedule: Q01DX001 (ip), vehicle: saline with Tween-80) was 113 % of control and 115 % of control, the T/C (endpoint: mean survival time, dose: 31.0 mg/kg/injection, schedule: Q04DX002 (ip), vehicle: saline with Tween-80) was 108 % of control and 109 % of control and the T/C (endpoint: mean survival time, dose: 40.0 mg/kg/injection, schedule: Q01DX001 (ip), vehicle: carboxymethylcellulose (CMC)) was 115 % of control. For the same compound, the T/C (endpoint: mean survival time, dose: 41.0 mg/kg/injection, schedule: Q01DX001 (ip), vehicle: carboxymethylcellulose (CMC)) was 114 % of control, the T/C (endpoint: mean survival time, dose: 41.0 mg/kg/injection, schedule: Q01DX001 (ip), vehicle: saline with Tween-80) was 115 % of control and 121 % of control and the T/C (endpoint: median survival time, dose: 3.0 mg/kg/injection, schedule: Q01DX009 (ip), vehicle: saline) was 99 % of control. For the same compound, the T/C (endpoint: median survival time, dose: 6.0 mg/kg/injection, schedule: Q01DX009 (ip), vehicle: saline) was 105 % of control, the T/C (endpoint: median survival time, dose: 12.0 mg/kg/injection, schedule: Q01DX009 (ip), vehicle: saline) was 96 % of control and the T/C (endpoint: median survival time, dose: 24.0 mg/kg/injection, schedule: Q01DX009 (ip), vehicle: saline) was 89 % of control.
With `CCOc1cc(C=Nc2cc(Br)c(OC)c(Br)c2)ccc1N(CCCl)CCCl` the T/C (endpoint: mean survival time, dose: 4.0 mg/kg/injection, schedule: Q01DX009 (ip), vehicle: carboxymethylcellulose (CMC)) was 106 % of control, the T/C (endpoint: mean survival time, dose: 7.0 mg/kg/injection, schedule: Q01DX009 (ip), vehicle: carboxymethylcellulose (CMC)) was 115 % of control and the T/C (endpoint: mean survival time, dose: 8.9 mg/kg/injection, schedule: Q01DX001 (ip), vehicle: carboxymethylcellulose (CMC)) was 122 % of control. The T/C (endpoint: mean survival time, dose: 11.0 mg/kg/injection, schedule: Q01DX009 (ip), vehicle: carboxymethylcellulose (CMC)) was 109 % of control, the T/C (endpoint: mean survival time, dose: 17.0 mg/kg/injection, schedule: Q01DX009 (ip), vehicle: carboxymethylcellulose (CMC)) was 123 % of control and the T/C (endpoint: mean survival time, dose: 133.0 mg/kg/injection, schedule: Q01DX001 (ip), vehicle: carboxymethylcellulose (CMC)) was 122 % of control.
